The supplement of paper PMC10307832

Legend:
Assay in all cases: relative viability (nuclei count vs DMSO), 5 days (fraction); higher = more cells survive
[1] = compound: C1CSC2=C(C(=O)N1)SC3=C2C=C(C=C3)O [kb NB 142-70]
Method in brief: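 A plate was accepted only when its control CV was below 25% and the cells had doubled at least once. Viability is defined from nuclear counts as treated wells divided by vehicle wells, with the median taken across plates. That median covers lung cancer cell lines grown in 1536-well plates, dosed by pinning at five √10-spaced library-drug concentrations, and counted in MetaXpress from 4× Hoechst images after 5 days.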

[2] = compound: C1CSC2=C(C(=O)N1)SC3=C2C=C(C=C3)O [kb NB 142-70] + Cc1nc(NC(=O)N2CCC[C@H]2C(N)=O)sc1-c1ccnc(C(C)(C)C(F)(F)F)c1 [Alpelisib] (partner 2 µM)
Method in brief: (§1)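 Relative viability was taken as the ratio of nuclei in treated wells to nuclei in vehicle wells. Lung cancer cell lines in 1536-well plates received compounds by pin tool one day after seeding, either one drug alone or a fixed anchor-drug dose plus five library-drug doses (not always all listed) in √10 steps. Nuclei were counted on 4× images after 5 days of treatment, and values are medians of duplicate plates.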

[3] = compound: NCC(=O)Nc1ccc(-n2nc(C(F)(F)F)cc2-c2ccc3c(ccc4ccccc43)c2)cc1 + COc1cc2c(Oc3ccc(NC(=O)C4(C(=O)Nc5ccc(F)cc5)CC4)cc3F)ccnc2cc1OCCCN1CCOCC1 [Foretinib] (partner 0.25 µM)
Method in brief: as §1

[4] = compound: NCC(=O)Nc1ccc(-n2nc(C(F)(F)F)cc2-c2ccc3c(ccc4ccccc43)c2)cc1 + C[C@@H](Oc1cc(-c2cnn(C3CCNCC3)c2)cnc1N)c1c(Cl)ccc(F)c1Cl [Crizotinib] (partner 1 µM)
Method in brief: as §1

Cell Line | relative viability ([1]; 0.1 µM) | relative viability ([1]; 1 µM) | relative viability ([1]; 3.162 µM) | relative viability ([2]; first compound 0.1 µM) | relative viability ([2]; first compound 1 µM) | relative viability ([2]; first compound 3.162 µM) | relative viability ([3]; first compound 0.02 µM) | relative viability ([3]; first compound 0.06325 µM) | relative viability ([3]; first compound 0.2 µM) | relative viability ([3]; first compound 0.6325 µM) | relative viability ([3]; first compound 2 µM) | relative viability ([4]; first compound 0.02 µM) | relative viability ([4]; first compound 0.06325 µM) | relative viability ([4]; first compound 0.2 µM) | relative viability ([4]; first compound 0.6325 µM) | relative viability ([4]; first compound 2 µM)
201T | 1.01 | 0.966 | 1.02 | 1.01 | 1.02 | 1 | 1.12 | 1.2 | 1.17 | 1.1 | 1.15 | 1.02 | 1.02 | 1.01 | 1.03 | 0.984
A549 | 0.96 | 0.957 | 0.689 | 0.714 | 0.654 | 0.14 | 0.923 | 0.956 | 0.917 | 1.01 | 0.971 | 0.762 | 0.755 | 0.774 | 0.767 | 0.826
A-427 | 1.04 | 1 | 0.969 | 1.01 | 1.23 | 1.11 | – | 1.2 | 1.1 | 1.11 | 0.959 | 0.87 | 0.848 | 1.04 | 0.935 | 0.865
ABC-1 | 0.984 | 0.985 | 0.494 | 1.16 | 0.932 | 0.796 | 1.29 | 1.15 | – | 0.988 | 1.2 | 1.33 | 1.77 | – | 1.04 | 0.992
BEN | 0.961 | 0.894 | 0.738 | 0.922 | 0.982 | 0.689 | 0.635 | 0.602 | 0.561 | 0.681 | 0.657 | 0.923 | 0.997 | 0.837 | 0.965 | 0.9
CAL-12T | 0.985 | 1.07 | 0.904 | 1.22 | 1.5 | 0.644 | 1.28 | 1.29 | 1.15 | 1.14 | 1.12 | 0.682 | 0.73 | 0.591 | 0.716 | 0.722
COR-L23 | 0.961 | 1.14 | 0.507 | 0.757 | 0.808 | 0.282 | 0.982 | 0.912 | 1.13 | 1.04 | 0.973 | 0.825 | 0.638 | 0.823 | 0.703 | 0.631
COR-L 105 | 0.86 | 0.88 | 1.02 | 1.11 | 0.989 | 1.03 | 1.15 | 1.26 | 1.14 | 0.985 | 1.04 | 0.873 | 0.765 | 0.803 | 0.845 | 1.06
Calu-6 | 1.04 | 0.996 | 0.614 | 0.984 | 0.867 | 0.478 | 0.843 | 0.87 | 0.857 | 0.896 | 0.891 | 0.862 | 0.854 | 0.853 | 0.838 | 0.774
ChaGo-K-1 | 1.06 | 1.05 | 0.946 | – | – | – | 0.866 | 0.956 | 0.847 | 0.937 | 0.77 | 1.14 | 1.08 | 1.01 | 1.05 | 1.03
EBC-1 | 1.01 | 1 | 0.643 | 0.864 | 0.798 | 0.491 | 0.0952 | 0.0845 | 0.105 | 0.0991 | 0.0847 | 0.178 | 0.236 | 0.204 | 0.198 | 0.25
EKVX | 0.933 | 0.981 | 0.988 | 0.854 | 0.849 | 0.96 | 0.905 | 1.05 | 0.602 | 0.77 | 0.626 | 1.2 | 0.973 | 0.896 | 1.06 | 0.868
EMC-BAC-2 | 1.08 | 0.972 | 0.632 | 0.74 | 0.754 | 0.572 | 0.957 | 0.966 | 1.02 | 1.09 | 1.05 | 0.737 | 0.763 | 0.797 | 0.712 | 0.765
EPLC-272H | 0.988 | 0.905 | 0.447 | 0.906 | 0.899 | 0.509 | 0.686 | 0.688 | 0.752 | 0.581 | 0.79 | 1.03 | 0.965 | 0.881 | 0.878 | 0.962
H3255 | 1.01 | 0.954 | 1.02 | 0.621 | 0.754 | 0.768 | 0.823 | 1.04 | 0.858 | 1.11 | 0.89 | 0.936 | 0.846 | 0.884 | 0.806 | 0.894
HARA | 0.986 | 0.971 | 1.02 | 0.786 | 0.726 | 0.516 | 0.976 | 0.991 | 0.889 | 0.961 | 0.974 | 1.06 | 1.01 | 1.04 | 1.05 | 1.13
HCC-15 | 1.03 | 1 | 0.978 | 0.908 | 0.787 | 0.626 | 1.07 | 1.04 | 1.08 | 1.1 | 1.07 | 0.817 | 0.808 | 0.795 | 0.773 | 0.768
HCC-44 | 1.01 | 0.997 | 1.08 | 0.772 | 0.875 | 0.735 | – | – | – | – | – | 0.9 | 0.828 | 0.853 | 0.819 | 0.74
HCC-78 | 1.08 | 0.998 | 0.877 | 0.363 | 0.348 | 0.335 | 0.551 | 0.565 | 0.52 | 0.577 | 0.621 | 0.361 | 0.363 | 0.346 | 0.337 | 0.348
HCC-366 | 1.01 | 0.976 | 0.927 | 0.425 | 0.333 | 0.296 | 0.918 | 0.911 | 0.984 | 0.924 | 0.992 | 0.558 | 0.589 | 0.55 | 0.736 | 0.456
